For series [1], the system named is anthelmintic-resistant isolate of Haemonchus contortus. Nature of the series: Method B: anthelmintic-resistant (benzimidazole-resistant) isolate of Haemonchus contortus, conditions of method A. The conditions noted are these: H. contortus isolate functionally resistant against benzimidazoles.
The test system of series [2] is Haemonchus contortus. Nature of the series: Method A: Haemonchus contortus L1 larvae, microtitre plate screen. The conditions noted are these: 96 h, read-out: motility inhibition.
For the next series, the system named is Cooperia oncophora. Nature of the series: Method C: Cooperia oncophora L1 larvae in vitro. The conditions noted are these: 96 h, read-out: inhibition of motility.
The subject of series [3] is Haemonchus contortus. Nature of the series: Method D: Haemonchus contortus in vivo in Mongolian jirds. As to conditions: po, 72 h, read-out: reduction in nematode infestation. More on the design: species or system Mongolian jirds (Meriones unguiculatus).
Series [4] can be described thus: Method G: permeability in the Caco-2/TC7 in vitro model. The conditions noted are these: human, Caco-2, pH 6.5. In general terms: Caco-2 cells form a polarised layer with tight junctions and transporters.
The subject of series [5] is microfilaria of Dirofilaria immitis. The series is described as follows: Method F: microfilaria of Dirofilaria immitis, survival at 24 hours. The conditions noted are these: survival of microfilaria at 24 hours.

This is an account of results in US9249102B2 (priority 2012, dated 2016).

Where two headings read alike, the source gives them in different places.

With `c1ccc2[nH]c(-c3cscn3)nc2c1` [thiabendazole], the “fold resistance of the isolate” value in series [1] is given as 127 fold.
One may read the inhibition as the relative decrease from the control value, in per cent. A word on the Papp A→B: it is the apparent permeability from the apical to the basolateral side of a cell layer. As for `O=C(CO[C@H]1CC[C@H](Nc2ccc([N+](=O)[O-])c(C(F)(F)F)c2)CC1)N1CCN(Cc2cc3cc(F)c(F)cc3o2)CC1` [Compound 325, 2-[(4-[[4-nitro-3-(trifluoromethyl)phenyl]amino]cyclohexyl)-oxy]1-[4-(5,6-difluorobenzofuran-2-ylmethyl)piperazin-1-yl]ethan-1-one], the inhibition at 5 µg/mL with Haemonchus contortus [2] and in the series with Cooperia oncophora was no less than 90% in each case. For the same molecule, the inhibition in vivo at 30 mg/kg in the series on Haemonchus contortus [3] lay within 70 to 90%. This molecule also had an apical-to-basolateral permeability (Papp A→B) at 20 μM in series [4] of 9 ×10⁻⁶ cm/s.
The term EC50 denotes the concentration that produces a half-maximal response. In the case of `O=C(CO[C@H]1CC[C@H](Nc2ccc([N+](=O)[O-])c(C(F)(F)F)c2)CC1)N1CCN(Cc2nc3cc(C(F)(F)F)ccc3s2)CC1` [Compound 302, 2-[4-[4-nitro-3-(trifluoromethyl)anilino]cyclohexoxy]-1-[4-[[5-(trifluoromethyl)-1,3-benzothiazol-2-yl]methyl]piperazin-1-yl]ethanone], the inhibition at 5 µg/mL in the series on Haemonchus contortus [2] and in the series with Cooperia oncophora was no less than 90% throughout. For the same molecule, the inhibition in vivo at 30 mg/kg in the series on Haemonchus contortus [3] was greater than 90%. Further, in series [5], the EC50 is less than 0.1 µg/mL.
In the case of `CN(c1ccc([N+](=O)[O-])c(C(F)(F)F)c1)[C@H]1CC[C@H](OCC(=O)N2CCN(CC3Cc4cc(F)ccc4O3)CC2)CC1` (stereo partly drawn) [Compound 261, 1-[4-(5-fluoro-2,3-dihydro-benzofuran-2-ylmethyl)-piperazin-1-yl]-2-{4-[methyl-(4-nitro-3-trifluoromethyl-phenyl)-amino]-cyclohexyloxy}-ethanone], the inhibition at 5 µg/mL in the series with Haemonchus contortus [2] and in the series with Cooperia oncophora was no less than 90% each time. Besides, in the series on Haemonchus contortus [3], the inhibition in vivo at 30 mg/kg was greater than 90%. The molecule further had an EC50 in series [5] of less than 0.1 µg/mL. Moreover, the Papp A→B at 20 μM in series [4] amounted to 8.2 ×10⁻⁶ cm/s.
Take `O=C(CO[C@H]1CC[C@H](Nc2ccc([N+](=O)[O-])c(C(F)(F)F)c2)CC1)N1CCN(CC2Cc3cc(C(F)(F)F)ccc3O2)CC1` (stereo partly drawn) [Compound 78, 2-[(4-[[4-nitro-3-(trifluoromethyl)phenyl]amino]cyclohexyl)oxy]-1-(4-[[5-(trifluoromethyl)-2,3-dihydro-1-benzofuran-2-yl]methyl]piperazin-1-yl)ethan-1-one]: the inhibition at 5 µg/mL in the series with Haemonchus contortus [2] and in the series with Cooperia oncophora was no less than 90% throughout. The inhibition in vivo at 30 mg/kg in the series with Haemonchus contortus [3] was greater than 90%. In series [5], this molecule showed an EC50 of less than 5 µg/mL.
Take `O=C(CO[C@H]1CC[C@H](Nc2ccc([N+](=O)[O-])c(C(F)(F)F)c2)CC1)N1CCN(c2ccc3cc(C(F)(F)F)ccc3n2)CC1` [Compound 89, 2-[(4-[[4-nitro-3-(trifluoromethyl)phenyl]amino]cyclohexyl)oxy]-1-[4-[6-(trifluoromethyl)quinolin-2-yl]piperazin-1-yl]ethan-1-one]: the inhibition at 5 µg/mL in the series with Haemonchus contortus [2] and in the series with Cooperia oncophora was no less than 90% each time. Also, the inhibition in vivo at 30 mg/kg in the series with Haemonchus contortus [3] was greater than 90%. The EC50 in series [5] was less than 5 µg/mL.
Turning to `N#Cc1ccc(N[C@H]2CC[C@H](OCC(=O)N3CCN(c4ccc5cc(Cl)ccc5c4)CC3)CC2)cc1C(F)(F)F` [Compound 278], the inhibition at 5 µg/mL in the series on Haemonchus contortus [2] and in the series on Cooperia oncophora was no less than 90% throughout. Also, the inhibition in vivo at 30 mg/kg in the series on Haemonchus contortus [3] (in Meriones unguiculatus) fell in the range of 70 to 90%. The molecule also came in with an EC50 in series [5] of less than 1 µg/mL.
As to `O=C(CO[C@H]1CC[C@H](Nc2ccc([N+](=O)[O-])c(C(F)(F)F)c2)CC1)N1CCN(Cc2nc3cc(F)ccc3s2)CC1` [Compound 235, 1-(4-((5-fluorobenzo[d]thiazol-2-yl)methyl)piperazin-1-yl)-2-(-4-(4-nitro-3-(trifluoromethyl)phenylamino)cyclohexyloxy)ethanone], the inhibition at 5 µg/mL with Haemonchus contortus [2] and with Cooperia oncophora was no less than 90% throughout. Also, the inhibition in vivo at 30 mg/kg in the series on Haemonchus contortus [3] lay in the range of 70 to 90%. The EC50 in series [5] is less than 1 µg/mL. The same molecule showed a Papp A→B at 20 μM in series [4] of 13.8 ×10⁻⁶ cm/s.
Consider `O=C(CO[C@H]1CC[C@H](Nc2ccc([N+](=O)[O-])c(C(F)(F)F)c2)CC1)N1CCN(Cc2cnc3cc(C(F)(F)F)ccc3c2)CC1` [Compound 327, 2-[4-(4-nitro-3-trifluoromethyl-phenylamino)-cyclohexyloxy]-1-[4-(7-trifluoromethyl-quinolin-3-ylmethyl)-piperazin-1-yl]-ethanone], for which the inhibition at 5 µg/mL with Haemonchus contortus [2] is no less than 90%. In addition, the inhibition in vivo at 30 mg/kg in the series on Haemonchus contortus [3] lay within 70 to 90%. The same molecule registered a Papp A→B at 20 μM in series [4] of 6.9 ×10⁻⁶ cm/s.
As for `O=C(CO[C@H]1CC[C@H](Nc2ccc([N+](=O)[O-])c(C(F)(F)F)c2)CC1)N1CCN(CC2Cc3cc(F)ccc3O2)CC1` (stereo partly drawn) [Compound 77], the inhibition at 5 µg/mL in the series on Haemonchus contortus [2] and in the series with Cooperia oncophora was no less than 90% each time. For the same molecule, the inhibition in vivo at 30 mg/kg with Haemonchus contortus [3] was greater than 90%. This molecule registered an EC50 in series [5] of less than 5 µg/mL.
In the case of `O=C(CO[C@H]1CC[C@H](Nc2ccc([N+](=O)[O-])c(C(F)(F)F)c2)CC1)N1CCN(Cc2cc3cc(C(F)(F)F)ccc3o2)CC1` [Compound 180, 2-[(4-[[4-nitro-3-(trifluoromethyl)phenyl]amino]cyclohexyl)oxy]-1-(4-[[5-(trifluoromethyl)-1-benzofuran-2-yl]methyl]piperazin-1-yl)ethan-1-one], the inhibition at 5 µg/mL in the series with Haemonchus contortus [2] and in the series with Cooperia oncophora was no less than 90% throughout. Also, in the series on Haemonchus contortus [3], the inhibition in vivo at 30 mg/kg was greater than 90%. In addition, the EC50 in series [5] is less than 1 µg/mL.
